The nature of experiment [1]: Inhibition of c-Met in human A549 cells by wound healing assay.
Experiment [2] can be described thus: Inhibition of c-Met in human DU145 cells assessed as cell scattering.

SMILES strings stand for the structures.

Regarding `COc1cc2nccc(Oc3ccc(NC(=O)N4CCN(c5ccccc5)C4=O)cc3F)c2cc1OC`, the IC50 in experiment [1] and in experiment [2] was 80 nM each time.
